Experimental data reported in patent US20210161855A1, “5-LIPOXYGENASE ANTAGONISTS” (INSTITUTO DE MEDICINA MOLECULAR JOÃO LOBO ANTUNES, priority 2017, published 2021).
Where two headings read alike, the source gives them in different places.

Columns and labels:
15-LO = 15-LO inhibition in intact human neutrophils; assay type: cell-based; conditions: without DTT
Protocol: Peripheral blood (University Hospital Jena, Germany) was withdrawn from healthy adult volunteers with consent that had not taken any anti-inflammatory drugs during the last 10 days, by venipuncture in heparinized tubes (16 IE heparin/mL blood). The blood was centrifuged at 4000 g for 20 min at 20° C. for preparation of leukocyte concentrates. Leukocyte concentrates were then subjected to dextran sedimentation and centrifugation on lymphocyte separation medium (LSM 1077, PAA, Colbe, Germany). Contaminating erythrocytes of pelleted neutrophils were removed by hypotonic Iysis. […] Method B. […] Cysteinyl-LTs C4, D4 and E4 were not detected (amounts were below detection limit), and oxidation products of LTB4 were not determined.

[1] = Dynamic light scattering, colloidal aggregation; assay type: physicochemical; conditions: relevant concentrations
Protocol: Dynamic light scattering (Zetasizer Nano S, Malvern, UK) was used to determine compound colloidal aggregation potential and kinetic solubility. The particle sizes were measured at 25° C. […] Colloidal aggregation was measured through sequential dilutions. Solubility was assessed at 25 μM after 0 and 30 minutes.

HL-60 = conditions: cited from earlier work
purified human 5-LO = biological target: T1, purified human 5-LO (Homo sapiens, UniProt P09917); assay: Intrinsic tryptophan fluorescence; assay type: binding; conditions: 1 mM dithiothreitol, increasing concentrations
T1 construct: purchased Abcam ab114310
T1 sequence (P09917 1-674): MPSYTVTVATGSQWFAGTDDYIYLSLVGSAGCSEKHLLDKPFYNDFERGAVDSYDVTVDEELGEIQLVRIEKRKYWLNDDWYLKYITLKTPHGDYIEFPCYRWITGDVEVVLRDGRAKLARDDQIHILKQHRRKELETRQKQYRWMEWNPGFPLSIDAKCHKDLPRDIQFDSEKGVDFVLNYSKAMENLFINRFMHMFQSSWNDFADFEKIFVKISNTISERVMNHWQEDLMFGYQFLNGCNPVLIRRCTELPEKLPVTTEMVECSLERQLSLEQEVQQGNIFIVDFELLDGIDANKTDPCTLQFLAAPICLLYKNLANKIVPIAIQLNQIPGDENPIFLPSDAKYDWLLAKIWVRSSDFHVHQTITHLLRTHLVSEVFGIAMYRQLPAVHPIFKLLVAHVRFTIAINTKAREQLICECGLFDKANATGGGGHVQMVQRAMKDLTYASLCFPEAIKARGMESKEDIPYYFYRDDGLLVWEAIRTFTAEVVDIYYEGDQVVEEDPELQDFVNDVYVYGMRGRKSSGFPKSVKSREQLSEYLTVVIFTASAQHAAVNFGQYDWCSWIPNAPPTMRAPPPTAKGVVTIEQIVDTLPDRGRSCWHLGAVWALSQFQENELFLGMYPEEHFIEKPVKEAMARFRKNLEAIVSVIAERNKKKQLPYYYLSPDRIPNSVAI
Protocol: 5-Lipoxygenase (Cat No. ab114310, Abcam) was concentrated to 0.5 μM in buffer (50 mM Tris-HCl, pH 8.0, 5 mM CaCl2). […] The final DMSO concentration was kept under 0.1%. Fluorescent measurements were performed using a 1 cm pathlength quartz cuvette. Spectra were collected in an Edinburgh Instruments FLS920 Series Fluorescence Spectrophotometer at 25° C. with fluorescence excitation and scanning emission set to 295 nm and 310 to 450 nm, respectively. All assays were carried out in triplicate.

5-LO = biological target: T2, 5-LO (Homo sapiens, UniProt P09917); assay: 5-LO product formation in intact human neutrophils; assay type: cell-based; set-up: endogenous in cells; host or cells: neutrophils isolated from peripheral blood of healthy adult volunteers; intact or sonicated homogenates
T2 sequence (P09917 1-674): T1 sequence (P09917 1-674)
Protocol: Peripheral blood (University Hospital Jena, Germany) was withdrawn from healthy adult volunteers with consent that had not taken any anti-inflammatory drugs during the last 10 days, by venipuncture in heparinized tubes (16 IE heparin/mL blood). The blood was centrifuged at 4000 g for 20 min at 20° C. for preparation of leukocyte concentrates. Leukocyte concentrates were then subjected to dextran sedimentation and centrifugation on lymphocyte separation medium (LSM 1077, PAA, Colbe, Germany). Contaminating erythrocytes of pelleted neutrophils were removed by hypotonic Iysis. […]
Method B. For determination of 5-LO products in intact neutrophils, the cells (5×10^6) were resuspended in 1 mL PGC buffer, preincubated for 15 min at 37° C. with β-lapachone or vehicle (0.1% DMSO), and incubated for 10 min at 37° C. with 2.5 μM Ca^2+-ionophore A23187 plus 20 μM AA. […] 5-LO products (LTB4, tr-LTB4 isomers, and 5-HETE), were analyzed by RP-HPLC and quantities calculated on the basis of the internal standard PGB1. Cysteinyl-LTs C4, D4 and E4 were not detected (amounts were below detection limit), and oxidation products of LTB4 were not determined.
Data are expressed as mean±S.E.M. IC50 values were calculated from averaged measurements at 6 different concentrations of the compound by nonlinear regression using GraphPad Prism software (San Diego, Calif.) one site binding competition. […]

EP3 = biological target: T3, EP3 (Homo sapiens, UniProt P43115); assay: Prostanoid EP3 receptor antagonism, functional assay; assay type: cell-based; conditions: 150 μM
T3 sequence (P43115 1-390): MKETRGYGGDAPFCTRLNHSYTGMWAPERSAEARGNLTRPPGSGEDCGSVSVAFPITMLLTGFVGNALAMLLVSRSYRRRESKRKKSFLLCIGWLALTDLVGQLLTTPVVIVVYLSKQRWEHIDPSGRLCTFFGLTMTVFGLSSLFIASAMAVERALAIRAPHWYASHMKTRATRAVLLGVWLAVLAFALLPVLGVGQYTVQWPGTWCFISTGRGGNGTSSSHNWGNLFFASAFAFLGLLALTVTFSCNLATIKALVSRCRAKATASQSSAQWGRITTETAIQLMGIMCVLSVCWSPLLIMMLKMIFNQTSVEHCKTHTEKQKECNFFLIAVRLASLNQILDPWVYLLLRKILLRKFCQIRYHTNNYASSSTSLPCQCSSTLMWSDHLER

For `CC1(C)CCC2=C(O1)c1ccccc1C(=O)C2=O` [Compound 1, 3,4-dihydro-2,2-dimethyl-2H-naphtho[1,2-b]pyran-5,6-dione], the IC50 (15-LO) is given as > 30000 nM, the Colloidal aggregation [1] is given as “no colloidal aggregation” and the pGI50 z-score (HL-60; NCI-60, z-transformed pGI50) is given as 2.38. For the same molecule, the GI50 (HL-60; NCI-60) was 62.4 nM, the Tryptophan fluorescence shift (purified human 5-LO) was “blue shift” and the IC50 (5-LO; 1 mM DTT, n=4, read-out: IC50, 5-LO activity in intact human neutrophils supplemented with DTT) was 420 nM. The IC50 (5-LO; without DTT, A23187 plus arachidonic acid, n=3, read-out: IC50 (5-LO), intact human neutrophils) was 8600 nM and the EP3 antagonist effect (EP3) was 95%.
